Source: patent publication US9393219B2, “Monophenols and benzenediols sensitization of immune system against haptenized melanoma antigens” (ACADEMISCH ZIEKENHUIS BIJ DE UNIVERSITEIT VAN AMSTERDAM, priority 2005, dated 2016)
Like-named read-outs stand apart in the source and are kept apart here.

Legend:
skin = details: cases in workers of polymer or leather industries; cited from earlier work
[1] = tested on: skin of vitiligo patients; assay: histology of skin of vitiligo patients undergoing depigmentation therapy; format: in vivo, human
Source text: (§1) No reaction occurs in depigmented skin. This entails that the inflammatory reaction is directed towards something, what is only present in melanocytes, e.g. tyrosinase, TRP1 and/or TRP2. However, auto-antibodies to tyrosinase, TRP1 and TRP2 have been reported to occur at low frequencies, or not at all, in vitiligo patients (37,38,39,40,41).

[2] = tested on: pigmented skin / depigmented skin; assay: in vivo inflammatory response of pigmented and depigmented skin; set-up: species or system human
Source text: as §1

[3] = tested on: melanocytes and keratinocytes; assay: in vitro toxic effects on melanocytes and keratinocytes; format: cell-based
Source text: as §1

melanoma = details: cited from earlier work; for toxicity of intra arterial infusion: intra arterial infusions in the lower limbs, high doses; for efficacy as chemotherapeutic in melanoma: metastatic/disseminated melanoma, intra arterial infusion of high doses
metastatic melanoma = details: immunotherapy; cited from earlier work

CC(C)(C)c1ccc(O)c(O)c1 [TBC, 4-tert-butylcatechol]
depigmentation on exposure of the skin (skin): causes leukoderma and can induce vitiligo-like depigmentation

Oc1ccc(OCc2ccccc2)cc1 [Monobenzone, p-(benzyloxy)phenol]
histology of skin: infiltrate [1]: dense infiltrate consisting of mainly CD8^+ cells and macrophages
granulocytes in the skin infiltrate ([1]; granulocytes would indicate a toxic (orthoergic) reaction): no granulocytes
inflammatory reaction ([2]; depigmented skin): No reaction
inflammatory response with erythema, edema and scaliness ([2]; pigmented skin): only seen in the pigmented skin
sensitivity of melanocytes and keratinocytes to the toxic effects [3]: equally sensitive
depigmentation on exposure of the skin (skin): causes leukoderma and can induce vitiligo-like depigmentation

COc1ccc(O)cc1 [4-HA, 4-hydroxyanisole]
toxicity of intra arterial infusion (melanoma): serious renal and hepatic toxicity
toxicity of intra arterial infusion (melanoma; listed as 4-Hydroxyanisole): severe toxic events
efficacy as chemotherapeutic in melanoma (melanoma): without success
efficacy as chemotherapeutic in melanoma (melanoma; listed as 4-Hydroxyanisole): not effective

B1: interferon (IFNγ): interferon (IFNγ) used as immunotherapy for metastatic melanoma (protein, UniProt P01579 24-161, looked up)
Interferon gamma: QDPYVKEAENLKKYFNAGHSDVADNGTLFLGILKNWKEESDRKIMQSQIVSFYFKLFKNFKDDQSIQKSVETIKEDMNVKFFNSNKKKRDDFEKLTNYSVTDLNVQRKAIHELIQVMAELSPAAKTGKRKRSQMLFRG
response rate (metastatic melanoma): approximately 15%
